≈ marks a conversion by molar mass, not a printed value.

For the series the following is noted: buffer; pH 7.4; 200.0 µM.
As for `CN(CC(=O)Nc1cccc(F)c1)C(=O)CC1CCCCC1`, the kinetic solubility (as a rule, solubility judged after dilution from a stock solution rather than from solid) was 21.1 µg/mL (≈ 68.9 µM).

In turn, `C/C(=N\O)C(C)(C)Nc1ccc(F)cc1` displayed a kinetic solubility of more than 31.5 µg/mL.

With `COc1ccc(C)cc1NC(=O)NCCCCc1ccccc1`, the solubility (kinetic) came to 0.4 µg/mL (≈ 1.28 µM).

Take `Cc1ccc(C)c(OCC(=O)Nc2ccncc2)c1`: the kinetic solubility came to 37 µg/mL (≈ 144 µM). Against the preceding compound, the solubility kinetic is about 92-fold higher.

As for `COc1ccc(S(=O)(=O)N2CCCCCC2)cc1NC(=O)CN1C(=O)CNC1=O`, the solubility (kinetic) is more than 63.7 µg/mL.

On to `O=C1OC(Nc2ccc(F)c([N+](=O)[O-])c2)c2ccccc21` (stereo unspecified), for which the kinetic solubility was determined as 42.6 µg/mL (≈ 148 µM).

As for `O=C(O)CC(NS(=O)(=O)c1ccc2c(c1)OCCO2)c1ccccc1[N+](=O)[O-]` (stereo unspecified), the kinetic solubility was more than 61.3 µg/mL.

As to `Cn1ncc2c(NCc3ccccc3)nc(NCCCO)nc21`, the solubility (kinetic) is more than 46.9 µg/mL.

For `CC1CC(C)CN(C(=O)CNC(=O)c2ccc3ccccc3c2)C1` (stereo unspecified), the kinetic solubility is more than 48.7 µg/mL.

Compound `CCOC(=O)N1CCN(c2cc(=O)n(C)c(=O)n2C)CC1` yielded a solubility (kinetic) of more than 44.4 µg/mL.

As for `CCOC(=O)Nc1cccc(OCC(=O)Nc2ccc3c(c2)CCC3)c1`, the solubility (kinetic) was 5.2 µg/mL (≈ 14.7 µM).

`NC(=O)Nc1ccc(C(=O)OCC(=O)NC2CCCc3ccccc32)cc1` (stereo unspecified) had a solubility (kinetic) of 11 µg/mL (≈ 29.9 µM).

Take `O=C(NCCN1CCOCC1)c1cc(Br)ccc1Cl`: the solubility (kinetic) was more than 52.1 µg/mL.

For `O=[N+]([O-])c1cccc(S(=O)(=O)/N=C(/Nc2ccccc2)c2ccccc2)c1`, the solubility (kinetic) was determined as 1.8 µg/mL (≈ 4.72 µM).

As for `Cc1nn(CC(=O)NC2CCCCC2)c(=O)c2cccn12`, the solubility (kinetic) was more than 43.3 µg/mL.

Take `O=C(CC(=O)Nc1cccc(F)c1)Nc1cccc(F)c1`: the kinetic solubility came to 9.4 µg/mL (≈ 32.4 µM).

Compound `NC(=O)N1c2ccccc2C=Cc2ccccc21` returned a solubility (kinetic) of more than 35.4 µg/mL.

`CC1CCN(Cc2cc(=O)oc3ccc(C(C)C)cc23)CC1.Cl` registered a kinetic solubility of 4 µg/mL.

As to `COc1cccc(C(O)Cc2nc3ccccc3n2C)c1OC` (stereo unspecified), the kinetic solubility is more than 46.9 µg/mL.

Consider `COc1ccc(Cl)cc1NC(=O)NCc1ccccn1`, for which the kinetic solubility was 41.6 µg/mL (≈ 143 µM).

For the compound `COc1ccc(S(=O)(=O)N2CCOCC2)cc1NC(=O)CSc1nnc(C2CC2)n1C`, the kinetic solubility was more than 70.1 µg/mL.

The compound `Cc1cccc(C(=O)OC(C)CN2CCOCC2)c1.Cl` (stereo unspecified) yielded a kinetic solubility of 38.9 µg/mL.

On to `CC(C)CC(NC(N)=O)C(=O)NCCc1ccc(Cl)cc1` (stereo unspecified), for which the solubility (kinetic) is more than 46.8 µg/mL.

In turn, `O=C(NCCCCc1ccccc1)c1ccc(F)cc1` gave a kinetic solubility of 1.4 µg/mL (≈ 5.16 µM).

In turn, `COC(=O)c1ccc(OC(=O)N2CCOCC2)cc1` gave a kinetic solubility of 33.6 µg/mL (≈ 127 µM). This solubility kinetic lies about 24-fold higher than the previous one.

The compound `CC(=O)c1ccc(N2C(=O)CC(N3CCN(S(=O)(=O)c4cc(C)ccc4C)CC3)C2=O)cc1` (stereo unspecified) had a kinetic solubility of 56.9 µg/mL (≈ 121 µM).

Compound `COC(=O)Cc1c(O)ccn(CCc2ccc(OC)c(OC)c2)c1=O` displayed a kinetic solubility of more than 52.1 µg/mL.

`CCN(Cc1ccccc1)C(=O)COC(=O)c1cc(Cl)nc(Cl)c1` registered a solubility (kinetic) of more than 55.1 µg/mL.

Compound `CC12CC3CC(C)(C1)CC(C(=O)N1CCCC1)(C3)C2` showed a kinetic solubility of 3.9 µg/mL (≈ 14.9 µM).

For the compound `CC(=O)NC(c1ccc(C)cc1)c1cc(Cl)c2cccnc2c1O` (stereo unspecified), the kinetic solubility was less than 0.4 µg/mL.

Compound `Cc1nc2ccc(NC(=O)Cc3ccccc3F)cc2s1` registered a solubility (kinetic) of 8 µg/mL (≈ 26.6 µM).

As to `Cc1ccc(C)c(NC(=O)COC(=O)c2ccc[n+]([O-])c2)c1`, the solubility (kinetic) was more than 45 µg/mL.

Compound `O=C(CSc1ncnc2sccc12)Nc1ccccc1` had a kinetic solubility of 6.9 µg/mL (≈ 22.9 µM).

The compound `COc1ccc(NC(=O)CCOc2ccccc2F)cc1S(=O)(=O)N1CCCCC1` registered a solubility (kinetic) of 34.8 µg/mL (≈ 79.7 µM). Compared with the last compound, the solubility kinetic is about 5-fold higher.

Take `Cc1ccc(N2C(=O)N(c3ccc(C)cc3)C3CS(=O)(=O)CC32)cc1` (stereo unspecified): the solubility (kinetic) was 12.9 µg/mL (≈ 36.2 µM).

Compound `COc1ccc(NC(=S)Nc2cnc3ccccc3c2)c(OC)c1` gave a solubility (kinetic) of 45.1 µg/mL (≈ 133 µM).

For `CCCCN1C(=O)NC(NC(=O)C2CC2)(C(F)(F)F)C1=O` (stereo unspecified), the solubility (kinetic) is more than 46.1 µg/mL.

`COC(c1ccccc1)c1nc2ccccc2[nH]c1=O` (stereo unspecified) yielded a solubility (kinetic) of more than 39.9 µg/mL.

Consider `c1ccc(CN2CCC(Nc3ncnc4sccc34)CC2)cc1`, for which the solubility (kinetic) was found to be 46.2 µg/mL (≈ 142 µM).

`CC(=O)c1ccc(NC(=O)c2noc(C)c2[N+](=O)[O-])cc1` displayed a kinetic solubility of 18.6 µg/mL (≈ 64.3 µM).

The compound `O=C(Cc1ccccc1)OCC(=O)c1cccc([N+](=O)[O-])c1` came in with a kinetic solubility of more than 44.9 µg/mL.

The compound `N#CCC(=O)Nc1ccc(C(=O)OCC(=O)NC(=O)Nc2ccc3c(c2)OCCO3)cc1` returned a solubility (kinetic) of 10.5 µg/mL (≈ 24 µM).

`CCN(CC(=O)Nc1ccc(NC(C)=O)cc1)S(=O)(=O)/C=C/c1ccccc1` showed a solubility (kinetic) of 9.6 µg/mL (≈ 23.9 µM). The solubility kinetic values of the last two compounds are within 1.5-fold of each other.

`O=C(NCc1ccccc1)C1CC(=O)N(C2CCCCCC2)C1` (stereo unspecified) came in with a solubility (kinetic) of more than 47.2 µg/mL.

`O=C(CCc1ccccc1)NC(=S)Nc1cccc(C(=O)O)c1` yielded a solubility (kinetic) of more than 49.3 µg/mL.

`COc1ccc(OC)c(NC(=O)CC2(CC(=O)O)CCCC2)c1` yielded a kinetic solubility of more than 48.2 µg/mL.

`O=C1OC(CCl)CN1Cc1c(Cl)cccc1Cl` (stereo unspecified) showed a kinetic solubility of 41.9 µg/mL (≈ 142 µM).

As for `c1ccc2c(CN3CCSCC3)cccc2c1`, the kinetic solubility was 4.2 µg/mL (≈ 17.3 µM).

`Cc1cc2oc(=O)cc(C)c2cc1NC(=O)CCl` returned a solubility (kinetic) of 39.4 µg/mL (≈ 148 µM).

For `Cc1cc(S(=O)(=O)Nc2cccc(Cl)c2)c(C)s1`, the solubility (kinetic) is 37.4 µg/mL (≈ 124 µM). This solubility kinetic and that of the compound before are within 1.5-fold of each other.

Regarding `O=C(CN1C(=O)NC2(CCOc3ccccc32)C1=O)NCCc1ccccc1` (stereo unspecified), the kinetic solubility is more than 56.9 µg/mL.

The values above are taken from PubChem BioAssay AID1996.
